From patent US20240391923A1, “METHIONINE ADENOSYLTRANSFERASE 2A INHIBITOR FOR TREATING MTAP DELETION-TYPE CANCER” (SUZHOU GENHOUSE BIO CO., LTD., priority 2022, published 2024) come the findings set out here.

Like-named read-outs stand apart in the source and are kept apart here.

Data set [1] relates to HCT116-MTAP wild-type (+/+)-cell strain. The data set can be described thus: Tumor cell proliferation inhibition assay (CellTiter-Glo), HCT116-MTAP wild-type (+/+). In kind it is cell-based. The following applies: Homo sapiens, 120 h, HCT116-MTAP wild-type (+/+) cells, 5-day treatment. In short, it runs like this:
(§1)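 Growth inhibition read as ATP content (CellTiter-Glo) after 5-day compound exposure at 37 °C, 5% CO2. Dosing began 24 h post-seeding, ten 3-fold dilutions starting at 10 μM, alongside a DMSO-treated group.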
Background: ATP-based viability assays read luminescence as a measure of living cells.

Data set [2] concerns the target MAT2A recombinant protein (Homo sapiens, UniProt P31153). Kind of data set: MAT2A inhibitory activity (malachite green colorimetric enzyme assay). The data set is classed as biochemical. In short, it runs like this:
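Recombinant human MAT2A with L-methionine and ATP in 50 mM HEPES pH 7.5, 50 mM KCl, 10 mM MgCl2, 10 mM DTT, 60 min at room temperature. Phosphate released detected by malachite green reagent (15 min) at 630 nm. Ten-point 1:3 series from 1000 nM final; IC50 by variable-slope non-linear regression.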

Data set [3] relates to HCT116-MTAP-knockout (−/−) cell strain. The data set can be described thus: Tumor cell proliferation inhibition assay (CellTiter-Glo), HCT116-MTAP-knockout (-/-). The data set is classed as cell-based. The following applies: Homo sapiens, 120 h, HCT116-MTAP-knockout (−/−) cells, 5-day treatment. In short, it runs like this: as §1
Data set [4] can be described thus: Saturation solubility of samples in FaSSIF solution. In kind it is physicochemical. The following applies: FaSSIF pH 6.5, room temperature overnight. On the procedure: About 0.21 g of sodium hydroxide, about 2.24 g of sodium dihydrogen phosphate dihydrate, and 3.09 g of sodium chloride were weighed out and dissolved in 500 mL of water, and then the pH was adjusted to 6.5 with 1 N sodium hydroxide or 1 N hydrochloric acid. 112 mg of FaSSIF solid was weighed out and placed in a 50 mL volumetric flask, and the above buffer was added for dissolution, diluted to volume, mixed well, and left to stand at room temperature for 2 h or more.
• Test sample: about 1 mg of the test sample was taken, and 1 mL of FaSSIF solution was added. The mixture was stirred at room temperature overnight and centrifuged, and the supernatant was collected and injected for analysis. • Control substance solution: about 1.5 mg of the test sample was precisely weighed out and placed in a 50 mL volumetric flask, and DMF was added for dissolution, diluted to volume, and mixed well.
• Mobile phase A: 1000 mL of purified water was accurately weighed out, 1 mL of formic acid was added, and the mixture was mixed well and degassed with ultrasonic. • Mobile phase B: acetonitrile
The peak of the main component of the control substance and the peak of the test substance consistent with the retention time of the peak of the main component of the control substance were integrated, and the concentration thereof in the FaSSIF solution was calculated according to external standard method.

Data set [5] concerns Human colorectal adenocarcinoma cells HCT116-MTAP-KO. The data set can be described thus: Mouse xenograft tumor pharmacodynamic model, HCT116-MTAP-KO. The data set is classed as in vivo. The following applies: PO 200 mg/kg once a day, 28 days of administration. The procedure:
(§2) In this example, the in vivo efficacy of the compound in a mouse xenograft tumor model after intragastric (PO) administration was tested.
Human colorectal adenocarcinoma cells HCT116-MTAP-KO were cultured in monolayer in vitro under the condition of McCoy's 5A medium containing 10% fetal bovine serum and 1% penicillin and streptomycin, and the culture was carried out at 37° C. with 5% CO2. The cells were digested with trypsin three times a week for passaging. When the saturation degree of the cells was 80-90%, the cells were collected, counted and inoculated. 0.1 mL (5×10^6 cells) of HCT116-MTAP-KO cells were subcutaneously inoculated on the right back of each mouse. On day 16 after inoculation of the cells, the mean tumor volume reached 154 mm^3. The mice were randomly grouped for administration and intragastrically dosed once daily. Changes in body weight and tumor volume were recorded. After a certain number of days of administration, the experiment was ended. Tumor volume changes and mouse body weight changes were counted and analyzed. AG270 (CAS: 2201056-66-6) was the positive control compound.

Data set [6] deals with Human pancreatic cancer cells KP-4. Kind of data set: Mouse xenograft tumor pharmacodynamic model, KP-4. The data set is classed as in vivo. The following applies: KP-4 xenograft, PO 200 mg/kg once a day, 29 days of administration. The procedure:
as §2
Human pancreatic cancer cells KP-4 were cultured in monolayer in vitro under the condition of 1640 medium containing […] and […] and streptomycin, and the culture was carried out at 37° C. with 5% CO2. The cells were digested with trypsin three times a week for passaging. When the saturation degree of the cells was 80-90%, the cells were collected, counted and inoculated. 0.1 mL (5×10^6 cells) of KP-4 cells were subcutaneously inoculated on the right back of each mouse. On day 34 after inoculation of the cells, the mean tumor volume reached 154 mm^3. The mice were randomly grouped for administration and intragastrically dosed once daily. Changes in body weight and tumor volume were recorded. After 29 days of administration, the experiment was ended. Tumor volume changes and mouse body weight changes were counted and analyzed. AG270 (CAS: 2201056-66-6) was the positive control compound.

MAT2A recombinant protein, sequence (P31153 whole entry): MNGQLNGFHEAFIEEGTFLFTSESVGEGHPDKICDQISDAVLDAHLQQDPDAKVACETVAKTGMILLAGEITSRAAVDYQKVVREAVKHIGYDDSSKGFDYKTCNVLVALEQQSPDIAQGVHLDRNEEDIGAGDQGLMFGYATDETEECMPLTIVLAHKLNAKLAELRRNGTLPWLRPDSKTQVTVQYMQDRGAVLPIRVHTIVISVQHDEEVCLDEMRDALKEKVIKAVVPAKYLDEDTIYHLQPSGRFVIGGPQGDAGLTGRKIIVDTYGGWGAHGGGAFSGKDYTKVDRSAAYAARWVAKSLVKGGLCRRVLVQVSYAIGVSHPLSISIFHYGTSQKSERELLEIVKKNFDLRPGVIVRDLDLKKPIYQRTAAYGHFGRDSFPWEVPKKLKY

As to `Cn1cc2c(n1)c(=O)n(-c1ccc(OC(F)F)cc1)c1nc(C(F)(F)F)ccc21` [Compound B188], the IC50 in data set [1] (IC50 score, read-out: Tumor cell 5-day relative growth inhibition (HCT116-MTAP+/+) (nM), score) is not below 2000 nM; in data set [1] (IC50 value, read-out: Tumor cell 5-day relative growth inhibition (HCT116-MTAP+/+)) it was more than 10000 nM; in data set [2] (IC50 score class, read-out: MAT2A Inhibition (score)), less than 100 nM; in data set [2] (read-out: MAT2A Inhibition) it was 99.4 nM; in data set [3] (IC50 score, read-out: Tumor cell 5-day relative growth inhibition (HCT116-MTAP−/−) (nM), score), not below 2000 nM; in data set [3] (IC50 value, read-out: Tumor cell 5-day relative growth inhibition (HCT116-MTAP−/−)) it was more than 10000 nM. The “FaSSIF (pH = 6.5) (μg/mL)” value in data set [4] worked out at 7.4 μg/mL.

In the case of AG270 [reference compound], the “Tumor growth inhibition percentage (TGI)” value in data set [5] is listed as “once a day TGI = 33.82%”; in data set [6], “once a day TGI = 57.48%”.
